Source: patent US4681091A, “Combination modality cancer therapy” (priority 1985, dated 1987)
Read-outs that look alike come from different tables or passages of the source.

Assays:
[1] = test system: bacterial cells (salmonella typhimurium TM677)
[2] = test system: mammalian cell culture; experiment: cells
Text: Immediately after addition of the drug to the culture media, the petri dishes containing the cells are placed into aluminium chambers which are then degassed and purged with nitrogen to produce hypoxia. The degassing/back-filling cycle is repeated two times and the cells are irradiated with cobalt-60 gamma rays in the aluminium chambers at the end of the two hours. Control, un-irradiated cell cultures are exposed to the drug in various concentrations to assess drug cytotoxicity. Immediately following irradiation the cells are removed from the petri dishes using trypsin enzyme for 6 minutes, pipetted into single cell suspensions, and serially diluted for subculturing in triplicate petri dishes containing 5 cc of fresh culture media without the test compound. These dishes are incubated in 5% CO2 at 37° C. for 10 days and, following staining, the colonies are counted to produce survival curves (surviving fraction of cells versus compound concentration or radiation dose). As in the bacterial radiosensitization tests, baseline curves for irradiation of the mammalian cells under oxic and hypoxic conditions in the absence of the compound are also determined to allow a quantitative estimation of the efficiency of the compound in sensitizing the cells to radiation-induced killing by deriving enhancement ratios.
In FIG. 3, the dotted line represents the standard or average reported misonidazole response. The symbols " " and ` ` represent experimental misonidazole response and the experimental Rh compound response respectively.

[3] = test system: mammalian cell culture; settings: for 1 hour Aerobic Cytotoxicity: aerobic mammalian cell culture; for 1 hour hypoxic cytotoxicity: hypoxic mammalian cell culture
[4] = in vitro; settings: salmonella typhimurium tm677, N/No (toxicity)
[5] = test system: bacterial cells (salmonella typhimurium TM677); settings: salmonella typhimurium tm677, 0 h, 200 µM

[O-2].[O-2].[O-2].[Rh+3].[Rh+3] [rhodium oxide]
toxicity, water solubility or sensitisation effect (combined statement) [1]: either too toxic, not soluble in water or failed altogether to show a sensitisation effect

COCC(O)Cn1ccnc1[N+](=O)[O-] (stereo not shown) [misonidazole, reference compound]
EC (SER 1.6) ([2]; read-out: C1.6: concentration required to give an ser (sensitizer enhancement ratio) of 1.6): 1500 µM

NCCN.NCCN.[Cl-].[Cl-].[Cl-].[Cl-].[Cl-].[Cl-].[Cl-].[Cl-].[NH3+]CC[NH3+].[Rh+3].[Rh+3] [[RhenCl4]2 [enH2]]
1 hour Aerobic Cytotoxicity ([3]; 100 µM): 78.0% | 1 hour Aerobic Cytotoxicity ([3]; 1000 µM): 61.0% | 1 hour Aerobic Cytotoxicity ([3]; 10000 µM): 6.1% | 1 hour hypoxic cytotoxicity ([3]; 100 µM): 95% | 1 hour hypoxic cytotoxicity ([3]; 330 µM): 83.6% | 1 hour hypoxic cytotoxicity ([3]; 1000 µM): 62.7% | 1 hour hypoxic cytotoxicity ([3]; 3300 µM): 22% | 1 hour hypoxic cytotoxicity ([3]; 10000 µM): < 1% | aerobic (oxic) response ([2]; FIG. 3, aerobic (oxic)): effectively zero | effectiveness compared with misonidazole ([2]; from concentrations giving ser 1.6): 75%

dichlorobis (ethylenediamine) rhodium (III) [Compound 3]
improvement for cell-kill (N/No), sensitised vs unsensitised cells [1]: dramatic improvement for cell-kill (N/No)

[Cl][Rh]([Cl])[Cl] [rhodium trichloride]
toxicity, water solubility or sensitisation effect (combined statement) [1]: either too toxic, not soluble in water or failed altogether to show a sensitisation effect

CCCC[N+](CCCC)(CCCC)CCCC.[C-]#[O+].[C-]#[O+].[Cl-].[Cl-].[Rh+] [tetra-n-butylammoniumdicarbonyldichlororhodium (I)]
toxicity, water solubility or sensitisation effect (combined statement) [1]: either too toxic, not soluble in water or failed altogether to show a sensitisation effect

O=[N+]([O-])[Rh-3]([N+](=O)[O-])([N+](=O)[O-])([N+](=O)[O-])([N+](=O)[O-])[N+](=O)[O-].[K+].[K+].[K+] [Compound 2, potassium hexanitrorhodium (III)]
viability at 0 h, 200 µM [4]: 100% | viability at 0.5 h, 200 µM [4]: 105% | N/No (toxicity) [5]: 1 | improvement for cell-kill (N/No), sensitised vs unsensitised cells [1]: dramatic improvement for cell-kill (N/No)
